Experimental data from ChEMBL document CHEMBL4177695, “Identification of pyruvate dehydrogenase kinase 1 inhibitors with anti-osteosarcoma activity” (Bioorg Med Chem Lett, 2017).
The source made the active and inactive calls. The calls are words filed in the database; no cut-off is given here.

Tests used:
[1] = molecular target: [Pyruvate dehydrogenase (acetyl-transferring)] kinase isozyme 2, mitochondrial (Homo sapiens, UniProt Q15119); assay: Inhibition of recombinant human GST-tagged PDK2 expressed in baculovirus infected Sf9 cells using PDHA1 as substrate measured after 1 hr by ELISA
MG-63 [2] = assay: Anti-proliferative activity against human MG63 cells after 72 hrs by MTT assay; type: functional, cell-based; conditions: for EC50: MG-63, 72 h
[3] = molecular target: T1, [Pyruvate dehydrogenase (acetyl-transferring)] kinase isozyme 1, mitochondrial (Homo sapiens, UniProt Q15118); conditions: 10 mM
Description: Inhibition of PDK1 in human MG63 cells assessed as reduction in pyruvate dehydrogenase complex phosphorylation at ser293 residue at 10 mM after 12 hrs by high content analysis

[4] = molecular target: T1, [Pyruvate dehydrogenase (acetyl-transferring)] kinase isozyme 1, mitochondrial; conditions: 10 mM; remark: listed apart in the source
Description: Inhibition of PDK1 in human MG63 cells assessed as reduction in pyruvate dehydrogenase complex phosphorylation at ser232 residue at 10 mM after 12 hrs by high content analysis

[5] = molecular target: T1, [Pyruvate dehydrogenase (acetyl-transferring)] kinase isozyme 1, mitochondrial; conditions: 10 mM; remark: listed apart in the source
Description: Inhibition of PDK1 in human MG63 cells assessed as reduction in pyruvate dehydrogenase complex phosphorylation at ser293 residue at 10 mM after 24 hrs by Western blot analysis

[6] = molecular target: T1, [Pyruvate dehydrogenase (acetyl-transferring)] kinase isozyme 1, mitochondrial; conditions: 10 mM; remark: listed apart in the source
Description: Inhibition of PDK1 in human MG63 cells assessed as reduction in pyruvate dehydrogenase complex phosphorylation at ser232 residue at 10 mM after 24 hrs by Western blot analysis

[7] = molecular target: T1, [Pyruvate dehydrogenase (acetyl-transferring)] kinase isozyme 1, mitochondrial; assay: Inhibition of recombinant human GST-tagged PDK1 expressed in baculovirus infected Sf9 cells at 10 uM using PDHA1 as substrate measured after 1 hr by ELISA relative to control
[8] = molecular target: T1, [Pyruvate dehydrogenase (acetyl-transferring)] kinase isozyme 1, mitochondrial; assay: Inhibition of recombinant human GST-tagged PDK1 expressed in baculovirus infected Sf9 cells using PDHA1 as substrate measured after 1 hr by ELISA
[9] = molecular target: T1, [Pyruvate dehydrogenase (acetyl-transferring)] kinase isozyme 1, mitochondrial; assay: Potency index, ratio of DCA IC50 to test compound IC50 for recombinant human GST-tagged PDK1 expressed in baculovirus infected Sf9 cells
[10] = molecular target: T1, [Pyruvate dehydrogenase (acetyl-transferring)] kinase isozyme 1, mitochondrial; assay: Inhibition of PDK1 in human MG63 cells assessed as reduction in pyruvate dehydrogenase complex phosphorylation at ser293 residue at 3 uM after 12 hrs by high content analysis relative to control; type: cell-based
[11] = molecular target: T1, [Pyruvate dehydrogenase (acetyl-transferring)] kinase isozyme 1, mitochondrial; assay: Inhibition of PDK1 in human MG63 cells assessed as reduction in pyruvate dehydrogenase complex phosphorylation at ser293 residue at 6 uM after 12 hrs by high content analysis relative to control; type: cell-based
[12] = molecular target: T1, [Pyruvate dehydrogenase (acetyl-transferring)] kinase isozyme 1, mitochondrial; assay: Inhibition of PDK1 in human MG63 cells assessed as reduction in pyruvate dehydrogenase complex phosphorylation at ser293 residue at 12 uM after 12 hrs by high content analysis relative to control; type: cell-based
[13] = molecular target: T1, [Pyruvate dehydrogenase (acetyl-transferring)] kinase isozyme 1, mitochondrial; assay: Inhibition of PDK1 in human MG63 cells assessed as reduction in pyruvate dehydrogenase complex phosphorylation at ser293 residue after 12 hrs by high content analysis; type: cell-based
[14] = molecular target: T1, [Pyruvate dehydrogenase (acetyl-transferring)] kinase isozyme 1, mitochondrial; assay: Inhibition of PDK1 in human MG63 cells assessed as reduction in pyruvate dehydrogenase complex phosphorylation at ser232 residue after 12 hrs by high content analysis; type: cell-based
[15] = molecular target: T1, [Pyruvate dehydrogenase (acetyl-transferring)] kinase isozyme 1, mitochondrial; assay: Inhibition of PDK1 in human MG63 cells assessed as reduction in pyruvate dehydrogenase complex phosphorylation at ser293 residue after 24 hrs by Western blot analysis; type: cell-based
[16] = molecular target: T1, [Pyruvate dehydrogenase (acetyl-transferring)] kinase isozyme 1, mitochondrial; assay: Inhibition of PDK1 in human MG63 cells assessed as reduction in pyruvate dehydrogenase complex phosphorylation at ser232 residue after 24 hrs by Western blot analysis; type: cell-based
MG-63 [17] = assay: Potency index, ratio of DCA EC50 to test compound EC50 for human MG63 cells; type: functional

T1 sequence (Q15118 whole entry): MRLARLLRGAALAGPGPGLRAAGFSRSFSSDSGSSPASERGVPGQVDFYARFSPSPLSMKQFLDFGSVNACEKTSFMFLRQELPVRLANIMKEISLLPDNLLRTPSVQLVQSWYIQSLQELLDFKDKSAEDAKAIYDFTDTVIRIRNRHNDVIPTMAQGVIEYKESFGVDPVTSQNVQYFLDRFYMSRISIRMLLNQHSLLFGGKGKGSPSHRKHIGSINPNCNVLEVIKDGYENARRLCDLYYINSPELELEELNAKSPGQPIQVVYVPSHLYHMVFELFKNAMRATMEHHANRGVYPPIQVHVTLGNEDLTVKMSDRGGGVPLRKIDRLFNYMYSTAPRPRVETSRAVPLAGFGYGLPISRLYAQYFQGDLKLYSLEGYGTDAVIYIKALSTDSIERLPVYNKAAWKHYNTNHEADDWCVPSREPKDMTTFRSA

Structure (SMILES) | IC50 [1] [µM] | EC50 (MG-63 [2]) [µM] | inhibition [3] | inhibition [4] | inhibition [5] | inhibition [6] | inhibition [7] [%] | IC50 [8] [µM] | Ratio IC50 [9] | inhibition [10] [%] | inhibition [11] [%] | inhibition [12] [%] | inhibition [13] | inhibition [14] | inhibition [15] | inhibition [16] | Activity (MG-63 [2]) | Ratio EC50 (MG-63 [17])
O=C(O)C(Cl)Cl [DICHLOROACETIC ACID] | 9000 | 15400 | Active | Active | Active | Active | – | – | – | – | – | – | – | – | – | – | – | –
COc1ccc(-c2c(C)c3ccc(OCCN4CCN(CCO)CC4)cc3oc2=O)cc1OC | 5.2 | 14.5 | – | – | – | – | 80.5 | 2.97 | > 1000 | 18.7 | 39.7 | 78.3 | Dose-dependent effect | Dose-dependent effect | Dose-dependent effect | Dose-dependent effect | Dose-dependent effect | >1000
O=c1c(-c2ccc(Br)cc2)coc2cc(OCCN3CCN(CCO)CC3)ccc12 | 10.9 | 11 | – | – | – | – | 83.3 | 3.14 | > 1000 | 17.6 | 49.3 | 75.3 | Dose-dependent effect | Dose-dependent effect | Dose-dependent effect | Dose-dependent effect | Dose-dependent effect | >1000
